Assay results: patent US5491145A, “Imidazopyridazines, their production and use” (Takeda Chemical Industries, Ltd., priority 1992, dated 1996)

These compounds were tested on PAF-induced bronchoconstriction in guinea pigs (assay: Effect on platelet activating factor (PAF)-induced guinea pig bronchoconstriction (Konzett-Roessler method)). Conditions: 3 mg/kg, administered orally one hour before PAF (1 μg/kg i.v.).
Format: in vivo, guinea pig (male Hartley)
Protocol: Effect on platelet activating factor (PAF)-induced guinea pig bronchoconstriction Male Hartley guinea pigs (body weights about 500 g) were used. Bronchoconstriction induced by PAF, 1 μg/kg i.v., in guinea pigs was measured using to the method of Konzett-Roessler. With the guinea pig immobilized in the dorsal position, tracheotomy was performed under urethane (1.5 g/kg i.v.) anesthesia and the trachea was connected through a cannula to a respirator. The side branch of the tracheal cannula was connected to a transducer (model 7020, Ugobasile). With the volume of air per feed being controlled at 3-7 ml, the ventilation frequency at 70/min. and the pulmonary loading pressure at 10 cm H2 O, the volume of overflow air was recorded on a […], San-ei Sokki) through the transducer. After administration of gallamine (1 mg/kg i.v.), PAF, 1 μg/kg, dissolved in physiological saline was administered through a jugular vein cannula and the induced bronchoconstriction was recorded for 15 minutes. The drug suspended in a 5% solution of gum arabic was administered orally in a dose of 10 mg/kg or 3 mg/kg one hour before PAF treatment: The results are presented in Table 1.

Row | Compound | % Inhibition of PAP-induced bronchoconstriction [%]
1 | 6-(2,2-diethyl-5-sulfamoyl-1-pentyloxy)-7-methylimidazo[1,2-b]pyridazine [Example 17] | 54
2 | Cc1cc2nccn2nc1OCC(C)(C)CCS(N)(=O)=O [Example 11, 6-(2,2-dimethyl-4-sulfamoyl-1-butoxy)-7-methylimidazo[1,2-b]pyridazine] | 58
3 | CCC(CC)(COc1nn2ccnc2cc1C)CS(N)(=O)=O.Cl [Example 15, 6-(2,2-diethyl-3-sulfamoyl-1-propoxy)-7-methylimidazo[1,2-b]pyridazine hydrochloride] | 80
4 | CCC(C)(COc1nn2ccnc2cc1C)CS(N)(=O)=O (stereo not shown) [Example 20] | 57

Same assay, conditions: 10 mg/kg, administered orally one hour before PAF (1 μg/kg i.v.)

Row | Compound | % Inhibition of PAP-induced bronchoconstriction [%]
5 | Cc1cc2nccn2nc1OCC(C)(C)CS(N)(=O)=O [Example 3, 6-(2,2-dimethyl-3-sulfamoyl-1-propoxy)-7-methylimidazo[1,2-b]pyridazine] | 76
6 | Cc1cc(OCC(C)(C)CS(N)(=O)=O)nn2ccnc12 [Example 5, 6-(2,2-dimethyl-3-sulfamoyl-1-propoxy)-8-methylimidazo[1,2-b]pyridazine] | 90
7 | Cc1cc2nccn2nc1OCC(C)(C)CCS(N)(=O)=O [Example 11, 6-(2,2-dimethyl-4-sulfamoyl-1-butoxy)-7-methylimidazo[1,2-b]pyridazine] | 71
